From ChEMBL document CHEMBL3638409, “Cycloalkane carboxylic acid derivatives as CXCR3 receptor antagonists” (2015)

biological target: T1, C-X-C chemokine receptor type 3 (Homo sapiens, UniProt P49682); assay: Competition Radioligand Binding Assay: Competition radioligand binding assays were performed to determine the in vitro potency of the newly synthesized, unlabeled test compounds to displace the specific binding of the radiolabelled endogenous chemokine, 125I-CXCL10, from the human CXCR3-A receptor. IC50 values were determined for the test compounds and used to explore the structure-activity relationships (SAR).
T1 sequence (P49682 whole entry): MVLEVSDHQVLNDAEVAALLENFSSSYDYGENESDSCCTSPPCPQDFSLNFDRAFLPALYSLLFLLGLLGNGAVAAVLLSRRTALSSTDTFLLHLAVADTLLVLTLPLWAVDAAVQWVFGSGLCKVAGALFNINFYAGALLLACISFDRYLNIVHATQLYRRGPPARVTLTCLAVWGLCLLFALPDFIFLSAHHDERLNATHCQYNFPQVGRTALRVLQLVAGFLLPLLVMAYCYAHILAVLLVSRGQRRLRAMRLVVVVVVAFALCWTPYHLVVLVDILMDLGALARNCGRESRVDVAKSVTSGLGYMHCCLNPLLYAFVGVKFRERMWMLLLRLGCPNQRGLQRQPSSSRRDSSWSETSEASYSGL

Structure (SMILES)	IC50 [nM]
CN1CC(=O)N(CCOc2ccc(CN(C[C@H]3CC[C@H](C(=O)O)CC3)C3CCc4cc(Cl)ccc43)cc2Cl)C1=O (some centres undefined)	1200
COc1cc(CN(C[C@H]2CC[C@H](C(=O)O)CC2)C(C)c2ccc3c(c2)CCO3)ccc1CCCN1C(=O)CCC1=O (some centres undefined)	81
Cc1cc(CN(C[C@H]2CC[C@H](C(=O)O)CC2)C(C)c2ccc(Cl)c(Cl)c2)ccc1OCCN1C(=O)CN(C)C1=O (some centres undefined)	431
COc1cc(CN(C2CC(C(=O)O)C2)C(C)c2ccc3c(c2)CCO3)ccc1OCCN1C(=O)CCC1=O (centres undefined)	58
